Each compound was assayed against PIK3CA (human) (UniProt P42336) (assay: Inhibition of PIK3CA Kinase Activity).
PIK3CA (human), sequence (P42336 whole entry, looked up): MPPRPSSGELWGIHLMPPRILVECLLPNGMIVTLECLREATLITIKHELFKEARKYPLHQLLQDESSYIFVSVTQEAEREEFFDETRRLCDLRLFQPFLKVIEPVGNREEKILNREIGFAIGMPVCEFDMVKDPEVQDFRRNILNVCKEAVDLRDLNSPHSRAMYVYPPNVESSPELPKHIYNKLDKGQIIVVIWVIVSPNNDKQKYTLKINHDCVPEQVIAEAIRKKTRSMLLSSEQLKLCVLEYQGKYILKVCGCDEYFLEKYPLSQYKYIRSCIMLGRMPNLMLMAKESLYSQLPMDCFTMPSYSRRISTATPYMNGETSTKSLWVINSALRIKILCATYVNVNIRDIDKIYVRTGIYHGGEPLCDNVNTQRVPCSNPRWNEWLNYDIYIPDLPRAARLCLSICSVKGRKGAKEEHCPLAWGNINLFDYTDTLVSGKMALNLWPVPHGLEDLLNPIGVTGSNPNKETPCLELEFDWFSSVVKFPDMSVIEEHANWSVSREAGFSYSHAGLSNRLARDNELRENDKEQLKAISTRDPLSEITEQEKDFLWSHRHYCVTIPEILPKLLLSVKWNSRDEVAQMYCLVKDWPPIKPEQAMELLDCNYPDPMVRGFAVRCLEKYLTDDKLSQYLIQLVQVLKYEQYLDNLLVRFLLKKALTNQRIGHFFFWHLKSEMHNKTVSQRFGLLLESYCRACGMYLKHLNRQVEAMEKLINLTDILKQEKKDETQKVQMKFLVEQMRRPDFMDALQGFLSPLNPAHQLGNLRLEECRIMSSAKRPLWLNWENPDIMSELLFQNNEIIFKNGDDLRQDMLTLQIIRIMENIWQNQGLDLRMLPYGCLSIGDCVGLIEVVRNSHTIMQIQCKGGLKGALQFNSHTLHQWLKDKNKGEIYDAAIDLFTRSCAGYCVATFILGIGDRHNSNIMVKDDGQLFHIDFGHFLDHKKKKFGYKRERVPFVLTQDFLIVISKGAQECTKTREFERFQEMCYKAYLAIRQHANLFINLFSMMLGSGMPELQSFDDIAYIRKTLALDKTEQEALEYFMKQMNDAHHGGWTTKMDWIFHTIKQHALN

IC50, < 1000 nM:
CC1CCCCC1n1cnc2c(-c3cnc(N)cn3)nc(N3CCOCC3)nc21 (stereo not given)
Nc1cnc(-c2nc(N3CCOCC3)nc3c2ncn3C2CCN(c3ccccc3)CC2)cn1
Nc1cnc(-c2nc(N3CCOCC3)nc3c2ncn3C2CCc3ccccc32)cn1 (stereo not given)
Nc1cnc(-c2nc(N3CCOCC3)nc3c2ncn3CC2CC2)cn1
CCC(CC)n1cnc2c(-c3cnc(N)cn3)nc(N3CCOCC3)nc21
CC(C)(C)Cn1cnc2c(-c3cnc(N)cn3)nc(N3CCOCC3)nc21
Nc1cnc(-c2nc(N3CCOCC3)nc3c2ncn3-c2ccccc2)cn1
Nc1cnc(-c2nc(N3CCOCC3)nc3c2ncn3C2CCC2)cn1
Cc1cccc(-n2cnc3c(-c4cnc(N)cn4)nc(N4CCOCC4)nc32)c1
Nc1cnc(-c2nc(N3CCOCC3)nc3c2ncn3C2CCc3ccccc3C2)cn1 (stereo not given)
Nc1cnc(-c2nc(N3CCOCC3)nc3c2ncn3C2CCN(c3ccccc3)C2)cn1 (stereo not given)
COCC(C)n1cnc2c(-c3cnc(N)cn3)nc(N3CCOCC3)nc21 (stereo not given)
Nc1cnc(-c2nc(N3CCOCC3)nc3c2ncn3C2CCCC2)cn1
CCC(C)n1c(Br)nc2c(-c3cnc(N)cn3)nc(N3CCOCC3)nc21 (stereo not given)
CC(C)C(C)n1cnc2c(-c3cnc(N)cn3)nc(N3CCOCC3)nc21 (stereo not given)
Nc1cnc(-c2nc(N3CCOCC3)nc3c2ncn3Cc2c(F)cccc2F)cn1
Nc1cnc(-c2nc(N3CCOCC3)nc3c2ncn3Cc2ccccc2)cn1
Nc1cnc(-c2nc(N3CCOCC3)nc3c2nc(Br)n3C2CCOC2)cn1 (stereo not given)
Nc1cnc(-c2nc(N3CCOCC3)nc3c2ncn3C2CCOC2)cn1 (stereo not given)
CCC(C#N)n1cnc2c(-c3cnc(N)cn3)nc(N3CCOCC3)nc21 (stereo not given)
Nc1cnc(-c2nc(N3CCOCC3)nc3c2ncn3-c2ccc3c(c2)OCO3)cn1
CCC(C)n1cnc2c(-c3cnc(N)cn3)nc(N3CCOCC3)nc21 (stereo not given)
Nc1cnc(-c2nc(N3CCOCC3)nc3[nH]cnc23)cn1
Nc1cnc(-c2nc(N3CCOCC3)nc3c2ncn3C2Cc3ccccc3C2)cn1
CC(C1CC1)n1cnc2c(-c3cnc(N)cn3)nc(N3CCOCC3)nc21 (stereo not given)

Source: the Kinase Knowledgebase extract (Sharma et al. 2016)
